Reference: PMC4508061, “Selectivity Profiling and Biological Activity of Novel β-Carbolines as Potent and Selective DYRK1 Kinase Inhibitors” (PLoS ONE, 2015)

Columns and labels:
Experiment in all cases: ProQinase radiometric kinase panel
Conditions in all cases: mean of 2 exp.
S6K = S6K (Homo sapiens, UniProt P23443)
CDK16/CycY = CDK16/CycY (Homo sapiens, UniProt Q00536)
BRK = BRK (Homo sapiens, UniProt Q13882)
ARK5 = ARK5 (Homo sapiens, UniProt O60285)
MEK1 = MEK1 (Homo sapiens, UniProt Q02750)
AXL = AXL (Homo sapiens, UniProt P30530)
SGK2 = SGK2 (Homo sapiens, UniProt Q9HBY8)
SNARK = SNARK (Homo sapiens, UniProt Q9H093)
MAPKAPK3 = MAPKAPK3 (Homo sapiens, UniProt Q16644)
TAOK3 = TAOK3 (Homo sapiens, UniProt Q9H2K8)
MAP3K11 = MAP3K11 (Homo sapiens, UniProt Q16584)
CDK2/CycA2 = CDK2/CycA2 (Homo sapiens, UniProt P24941)
CDK6/CycD1 = CDK6/CycD1 (Homo sapiens, UniProt Q00534)
RPS6KA6 = RPS6KA6 (Homo sapiens, UniProt Q9UK32)
HCK = HCK (Homo sapiens, UniProt P08631)
PASK = PASK (Homo sapiens, UniProt Q96RG2)
TEC = TEC (Homo sapiens, UniProt P42680)
RPS6KA5 = RPS6KA5 (Homo sapiens, UniProt O75582)
STK23 = STK23 (Homo sapiens, UniProt Q9UPE1)
EPHA8 = EPHA8 (Homo sapiens, UniProt P29322)
CK2-alpha2 = CK2-alpha2 (Homo sapiens, UniProt P19784)
MAPKAPK5 = MAPKAPK5 (Homo sapiens, UniProt Q8IW41)
BMX = BMX (Homo sapiens, UniProt P51813)
BMPR1A = BMPR1A (Homo sapiens, UniProt P36894)
MAP3K7 = MAP3K7 (Homo sapiens, UniProt O43318)
NEK9 = NEK9 (Homo sapiens, UniProt Q8TD19)
PAK4 = PAK4 (Homo sapiens, UniProt O96013)
PDGFR-beta = PDGFR-beta (Homo sapiens, UniProt P09619)
VRK1 = VRK1 (Homo sapiens, UniProt Q99986)
CDK9/CycK = CDK9/CycK (Homo sapiens, UniProt P50750)
TGFB-R1 = TGFB-R1 (Homo sapiens, UniProt P36897)
EPHB4 = EPHB4 (Homo sapiens, UniProt P54760)
CDK4/CycD3 = CDK4/CycD3 (Homo sapiens, UniProt P11802)
IKK-epsilon = IKK-epsilon (Homo sapiens, UniProt Q14164)
PAK3 = PAK3 (Homo sapiens, UniProt O75914)
EPHA1 = EPHA1 (Homo sapiens, UniProt P21709)
MAP3K10 = MAP3K10 (Homo sapiens, UniProt Q02779)
S6K-beta = S6K-beta (Homo sapiens, UniProt Q9UBS0)
ACV-R2B = ACV-R2B (Homo sapiens, UniProt Q13705)

Chain of MAP3K10 (Q02779 whole entry): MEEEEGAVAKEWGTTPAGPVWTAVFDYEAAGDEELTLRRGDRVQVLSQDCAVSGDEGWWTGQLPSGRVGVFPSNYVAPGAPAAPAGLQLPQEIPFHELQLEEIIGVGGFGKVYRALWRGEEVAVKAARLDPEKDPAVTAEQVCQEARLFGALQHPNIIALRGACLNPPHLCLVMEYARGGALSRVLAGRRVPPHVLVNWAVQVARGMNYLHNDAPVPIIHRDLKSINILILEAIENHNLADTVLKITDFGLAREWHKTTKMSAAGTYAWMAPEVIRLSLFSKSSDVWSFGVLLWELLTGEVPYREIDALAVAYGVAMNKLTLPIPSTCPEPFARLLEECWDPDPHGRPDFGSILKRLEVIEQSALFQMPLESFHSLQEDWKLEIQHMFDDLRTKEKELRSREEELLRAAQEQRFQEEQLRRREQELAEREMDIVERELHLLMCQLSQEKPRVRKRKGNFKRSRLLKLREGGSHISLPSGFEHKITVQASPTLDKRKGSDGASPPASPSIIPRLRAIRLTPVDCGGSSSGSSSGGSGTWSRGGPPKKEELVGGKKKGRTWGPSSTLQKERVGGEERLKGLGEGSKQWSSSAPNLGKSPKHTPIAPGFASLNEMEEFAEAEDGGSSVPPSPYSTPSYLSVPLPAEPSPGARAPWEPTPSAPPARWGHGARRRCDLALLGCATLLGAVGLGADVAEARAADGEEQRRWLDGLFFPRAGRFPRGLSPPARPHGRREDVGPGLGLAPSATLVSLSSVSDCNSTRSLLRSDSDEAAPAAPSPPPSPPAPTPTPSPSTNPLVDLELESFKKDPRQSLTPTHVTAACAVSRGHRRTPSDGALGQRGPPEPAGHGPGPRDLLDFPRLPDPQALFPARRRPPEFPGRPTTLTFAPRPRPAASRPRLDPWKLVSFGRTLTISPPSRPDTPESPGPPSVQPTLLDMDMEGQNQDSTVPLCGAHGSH
Chain of VRK1 (Q99986 whole entry): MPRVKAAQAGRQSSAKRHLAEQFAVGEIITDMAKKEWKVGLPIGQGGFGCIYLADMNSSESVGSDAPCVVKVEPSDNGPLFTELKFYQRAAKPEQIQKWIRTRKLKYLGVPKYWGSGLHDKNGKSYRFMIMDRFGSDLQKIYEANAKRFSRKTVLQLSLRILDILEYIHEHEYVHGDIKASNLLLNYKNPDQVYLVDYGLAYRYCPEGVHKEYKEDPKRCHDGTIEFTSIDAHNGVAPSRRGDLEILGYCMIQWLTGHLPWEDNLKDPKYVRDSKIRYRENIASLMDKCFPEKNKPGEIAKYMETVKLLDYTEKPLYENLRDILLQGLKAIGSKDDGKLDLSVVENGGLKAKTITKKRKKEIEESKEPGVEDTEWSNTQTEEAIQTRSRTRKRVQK
Chain of TEC (P42680 whole entry): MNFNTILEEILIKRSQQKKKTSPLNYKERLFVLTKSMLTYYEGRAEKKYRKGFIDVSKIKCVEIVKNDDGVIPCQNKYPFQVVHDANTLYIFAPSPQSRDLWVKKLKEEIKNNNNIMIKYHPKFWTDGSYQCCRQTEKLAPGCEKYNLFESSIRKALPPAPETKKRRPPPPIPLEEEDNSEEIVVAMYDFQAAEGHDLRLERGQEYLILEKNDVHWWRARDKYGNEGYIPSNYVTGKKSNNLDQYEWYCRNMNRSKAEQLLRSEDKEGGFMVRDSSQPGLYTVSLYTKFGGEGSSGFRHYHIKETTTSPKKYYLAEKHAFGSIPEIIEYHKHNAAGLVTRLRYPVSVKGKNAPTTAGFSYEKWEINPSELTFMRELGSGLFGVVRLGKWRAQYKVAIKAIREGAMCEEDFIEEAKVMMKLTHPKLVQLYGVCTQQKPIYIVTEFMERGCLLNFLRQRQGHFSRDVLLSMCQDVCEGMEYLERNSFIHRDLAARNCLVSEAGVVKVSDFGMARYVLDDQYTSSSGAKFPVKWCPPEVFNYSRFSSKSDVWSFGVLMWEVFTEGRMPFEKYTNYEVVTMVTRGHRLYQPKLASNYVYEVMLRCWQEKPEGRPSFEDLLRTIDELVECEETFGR
Chain of EPHA1 (P21709 26-976): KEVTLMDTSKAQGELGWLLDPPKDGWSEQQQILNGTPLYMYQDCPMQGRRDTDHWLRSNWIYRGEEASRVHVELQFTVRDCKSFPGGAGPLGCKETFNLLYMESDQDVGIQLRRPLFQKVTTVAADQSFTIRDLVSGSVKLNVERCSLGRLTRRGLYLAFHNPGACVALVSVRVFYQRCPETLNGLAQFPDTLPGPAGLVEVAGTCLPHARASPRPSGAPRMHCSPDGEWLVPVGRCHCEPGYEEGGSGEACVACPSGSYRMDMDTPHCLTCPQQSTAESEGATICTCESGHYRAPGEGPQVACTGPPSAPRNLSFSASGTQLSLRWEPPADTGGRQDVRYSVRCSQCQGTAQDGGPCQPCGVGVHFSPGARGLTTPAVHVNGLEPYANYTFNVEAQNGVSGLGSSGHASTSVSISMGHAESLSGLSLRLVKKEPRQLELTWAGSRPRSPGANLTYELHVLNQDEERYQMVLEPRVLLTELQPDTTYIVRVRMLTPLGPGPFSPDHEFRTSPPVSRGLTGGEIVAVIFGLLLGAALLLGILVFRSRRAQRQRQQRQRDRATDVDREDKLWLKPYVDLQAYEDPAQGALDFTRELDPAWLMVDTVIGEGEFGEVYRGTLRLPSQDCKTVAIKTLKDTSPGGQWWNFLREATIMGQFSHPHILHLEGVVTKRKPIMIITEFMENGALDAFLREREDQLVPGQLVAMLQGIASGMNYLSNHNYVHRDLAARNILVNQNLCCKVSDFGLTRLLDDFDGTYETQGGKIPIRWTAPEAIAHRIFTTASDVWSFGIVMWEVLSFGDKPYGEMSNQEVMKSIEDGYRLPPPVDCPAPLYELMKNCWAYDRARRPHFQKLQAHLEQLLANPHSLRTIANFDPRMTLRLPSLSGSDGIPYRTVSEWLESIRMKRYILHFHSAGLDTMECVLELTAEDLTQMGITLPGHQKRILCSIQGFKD
Chain of STK23 (Q9UPE1 whole entry): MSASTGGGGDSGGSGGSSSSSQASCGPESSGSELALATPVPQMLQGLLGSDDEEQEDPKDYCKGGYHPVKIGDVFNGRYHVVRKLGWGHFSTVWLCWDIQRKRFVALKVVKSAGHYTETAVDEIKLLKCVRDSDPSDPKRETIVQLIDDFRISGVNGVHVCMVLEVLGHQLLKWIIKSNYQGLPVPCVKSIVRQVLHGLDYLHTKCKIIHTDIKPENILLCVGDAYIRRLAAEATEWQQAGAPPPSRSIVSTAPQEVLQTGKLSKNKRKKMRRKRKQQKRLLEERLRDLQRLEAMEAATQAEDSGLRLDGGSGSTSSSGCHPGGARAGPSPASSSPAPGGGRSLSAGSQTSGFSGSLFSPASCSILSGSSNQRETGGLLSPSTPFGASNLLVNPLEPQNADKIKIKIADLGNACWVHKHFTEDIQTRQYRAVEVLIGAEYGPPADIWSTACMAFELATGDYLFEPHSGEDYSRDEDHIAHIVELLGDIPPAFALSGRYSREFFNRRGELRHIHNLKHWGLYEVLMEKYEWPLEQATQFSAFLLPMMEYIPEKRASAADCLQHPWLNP
Chain of RPS6KA6 (Q9UK32 whole entry): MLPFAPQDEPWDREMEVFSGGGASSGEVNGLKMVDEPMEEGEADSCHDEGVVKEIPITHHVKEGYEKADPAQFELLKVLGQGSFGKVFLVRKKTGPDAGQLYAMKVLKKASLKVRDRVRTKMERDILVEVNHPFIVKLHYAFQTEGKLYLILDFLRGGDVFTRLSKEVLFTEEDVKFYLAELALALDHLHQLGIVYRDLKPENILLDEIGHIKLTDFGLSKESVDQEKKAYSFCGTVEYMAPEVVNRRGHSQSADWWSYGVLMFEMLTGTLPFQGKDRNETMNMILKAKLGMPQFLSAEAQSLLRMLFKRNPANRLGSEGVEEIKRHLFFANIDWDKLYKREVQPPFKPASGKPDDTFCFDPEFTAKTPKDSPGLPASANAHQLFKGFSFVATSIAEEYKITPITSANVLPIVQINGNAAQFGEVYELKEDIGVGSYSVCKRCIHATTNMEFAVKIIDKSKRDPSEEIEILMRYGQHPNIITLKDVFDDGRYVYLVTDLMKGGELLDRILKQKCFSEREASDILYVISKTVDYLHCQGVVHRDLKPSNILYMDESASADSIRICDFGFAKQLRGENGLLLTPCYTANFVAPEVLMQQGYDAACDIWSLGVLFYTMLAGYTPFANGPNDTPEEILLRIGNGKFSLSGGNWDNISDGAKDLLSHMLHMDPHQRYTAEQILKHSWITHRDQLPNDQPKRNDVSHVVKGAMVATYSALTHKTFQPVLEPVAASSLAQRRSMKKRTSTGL
Chain of RPS6KA5 (O75582 whole entry): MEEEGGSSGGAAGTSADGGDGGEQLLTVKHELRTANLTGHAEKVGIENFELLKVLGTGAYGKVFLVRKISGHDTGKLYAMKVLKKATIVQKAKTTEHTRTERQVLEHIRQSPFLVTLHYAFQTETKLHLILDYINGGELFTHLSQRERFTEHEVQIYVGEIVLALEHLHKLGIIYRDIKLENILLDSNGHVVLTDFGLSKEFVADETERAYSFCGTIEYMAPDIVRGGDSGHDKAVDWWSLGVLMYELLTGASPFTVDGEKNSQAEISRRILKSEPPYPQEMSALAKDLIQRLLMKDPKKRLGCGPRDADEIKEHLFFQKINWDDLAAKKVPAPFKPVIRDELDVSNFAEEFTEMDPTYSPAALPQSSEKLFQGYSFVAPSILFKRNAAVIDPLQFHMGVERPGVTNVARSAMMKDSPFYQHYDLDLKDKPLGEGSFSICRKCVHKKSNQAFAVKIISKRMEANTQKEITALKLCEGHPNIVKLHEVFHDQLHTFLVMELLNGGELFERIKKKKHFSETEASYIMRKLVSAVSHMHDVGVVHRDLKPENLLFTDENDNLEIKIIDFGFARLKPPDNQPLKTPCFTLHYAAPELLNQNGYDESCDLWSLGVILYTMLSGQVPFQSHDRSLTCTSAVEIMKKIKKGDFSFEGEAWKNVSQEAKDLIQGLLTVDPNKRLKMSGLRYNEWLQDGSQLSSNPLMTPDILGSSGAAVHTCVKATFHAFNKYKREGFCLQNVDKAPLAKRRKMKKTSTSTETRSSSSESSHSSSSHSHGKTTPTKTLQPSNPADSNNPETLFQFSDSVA

SMILES: COc1ccc2c3ccnc(Cl)c3n(CC#N)c2c1 [AnnH75]
- residual activity at 1 µM, Mean (S6K): 85 % of control
- residual activity at 1 µM, Mean (CDK16/CycY): 90 % of control
- residual activity at 1 µM, Mean (BRK): 97 % of control
- residual activity at 1 µM, Mean (ARK5): 94 % of control
- residual activity at 1 µM, Mean (MEK1): 72 % of control
- residual activity at 1 µM, Mean (AXL): 95 % of control
- residual activity at 1 µM, Mean (SGK2): 99 % of control
- residual activity at 1 µM, Mean (SNARK): 95 % of control
- residual activity at 1 µM, Mean (MAPKAPK3): 94 % of control
- residual activity at 1 µM, Mean (TAOK3): 103 % of control
- residual activity at 1 µM, Mean (MAP3K11): 98 % of control
- residual activity at 1 µM, Mean (CDK2/CycA2): 88 % of control
- residual activity at 1 µM, Mean (CDK6/CycD1): 95 % of control
- residual activity at 1 µM, Mean (RPS6KA6): 98 % of control
- residual activity at 1 µM, Mean (HCK): 101 % of control
- residual activity at 1 µM, Mean (PASK): 74 % of control
- residual activity at 1 µM, Mean (TEC): 93 % of control
- residual activity at 1 µM, Mean (RPS6KA5): 96 % of control
- residual activity at 1 µM, Mean (STK23): 93 % of control
- residual activity at 1 µM, Mean (EPHA8): 89 % of control
- residual activity at 1 µM, Mean (CK2-alpha2): 101 % of control
- residual activity at 1 µM, Mean (MAPKAPK5): 89 % of control
- residual activity at 1 µM, Mean (BMX): 79 % of control
- residual activity at 1 µM, Mean (BMPR1A): 89 % of control
- residual activity at 1 µM, Mean (MAP3K7): 91 % of control
- residual activity at 1 µM, Mean (NEK9): 95 % of control
- residual activity at 1 µM, Mean (PAK4): 94 % of control
- residual activity at 1 µM, Mean (PDGFR-beta): 88 % of control
- residual activity at 1 µM, Mean (VRK1): 89 % of control
- residual activity at 1 µM, Mean (CDK9/CycK): 52 % of control
- residual activity at 1 µM, Mean (TGFB-R1): 104 % of control
- residual activity at 1 µM, Mean (EPHB4): 95 % of control
- residual activity at 1 µM, Mean (CDK4/CycD3): 89 % of control
- residual activity at 1 µM, Mean (IKK-epsilon): 95 % of control
- residual activity at 1 µM, Mean (PAK3): 95 % of control
- residual activity at 1 µM, Mean (EPHA1): 92 % of control
- residual activity at 1 µM, Mean (MAP3K10): 91 % of control
- residual activity at 1 µM, Mean (S6K-beta): 102 % of control
- residual activity at 1 µM, Mean (ACV-R2B): 97 % of control
